Data as given in patent US9096591B2, “Tetracyclic compounds” (Medivation Technologies, Inc., priority 2007, dated 2015).

Assays:
[1] = molecular target: T1, human recombinant histamine H1 receptor (Homo sapiens, UniProt P35367); assay: Histamine H1 radioligand binding ([3H]Pyrilamine); conditions: […] [3H]Pyrilamine, read-out: Histamine Binding H1, percent inhibition of specific binding
T1 construct: expressed in transfected cells; host or cells: CHO cells
Protocol: To evaluate in radioligand binding assays the activity of compounds of the invention, human recombinant histamine H1 receptor expressed in Chinese hamster ovary (CHO) cells (De Backer M D et al. Biochem. Biophys. Res Comm. 197(3):1601, 1993) in a modified Tris-HCl buffer (50 mM Tris-HCl, pH 7.4, 2 mM MgCl2, 100 mM NaCl, 250 mM Sucrose) were used. […] Non-specific binding was estimated in the presence of 1 μM pyrilamine. Receptor proteins were filtered and washed, the filters were then counted to determine [^3H]pyrilamine specifically bound. […] Biochemical assay results are presented as the percent inhibition of specific binding in Table 5.
To evaluate in radioligand binding assays the activity of compounds of the invention, human recombinant histamine H1 receptor expressed in Chinese hamster ovary (CHO) cells (De Backer, M. D. et al., Biochem. Biophys. Res. Comm. 197(3):1601, 1993) in a modified Tris-HCl buffer (50 mM Tris-HCl, pH 7.4, 2 mM MgCl2, 100 mM NaCl, 250 mM Sucrose) was used. […] Non-specific binding was estimated in the presence of 1 μM pyrilamine. Receptor proteins were filtered and washed, the filters were then counted to determine [^3H]Pyrilamine specifically bound. Compounds were screened at 1 μM, using 1% DMSO as vehicle. Biochemical assay results are presented as the percent inhibition of specific binding in Table 6.

[2] = molecular target: T2, human recombinant histamine H2 receptor (Homo sapiens, UniProt P25021); assay: Histamine H2 radioligand binding ([125I]Aminopotentidine); conditions: 0.3 μM compound; 0.1 nM [125I]Aminopotentidine; read-out: Histamine Binding H2, percent inhibition of specific binding
T2 construct: expressed in transfected cells; host or cells: CHO-K1 cells
Protocol: Non-specific binding was estimated in the presence of 3 μM Tiotidine. […] Biochemical assay results are presented as the percent inhibition of specific binding in Table 5.
Non-specific binding was estimated in the presence of 3 μM Tiotidine. […] Compounds were screened at 1 μM, using 1% DMSO as vehicle. Biochemical assay results are presented as the percent inhibition of specific binding in Table 6.

[3] = system: adrenergic receptors α1D, α2A, α2B; serotonin receptor 5-HT6; dopamine receptor D2L; assay: Classification of compounds (Type 1-4) from receptor binding and neurite outgrowth
Text: Compounds of the invention that inhibit binding of a ligand to adrenergic receptors α1D, α2A, α2B and serotonin receptor 5-HT6 by at least about 80% as determined in a suitable assay such as the assays described herein can be classified as Type 1 compounds. […] In one variation, binding of a ligand to serotonin receptor 5-HT7 is at least about 80%. […] Weak inhibition of binding of a ligand to the histamine H1 receptor is permitted as agonists of this receptor have been implicated in stimulating memory as well as weight gain. In one variation, binding to histamine receptor H1 is inhibited by less than about 80%. […] Compounds that inhibit binding of a ligand to the dopamine D2L receptor by at least about 80% as determined in a suitable assay such as the assay described herein can be classified as Type 2 compounds.
In one variation, Type 1 compounds further inhibit binding of a ligand to dopamine receptor D2L by less than about 80% as determined in a suitable assay known in the art such as the assay described herein. […] In one variation, binding of a ligand to serotonin receptor 5-HT7, 5-HT2A and/or 5-HT2C is inhibited by at least about 80% as determined in a suitable assay such as the assays described herein. […] In one variation, binding of a ligand to histamine receptor H1 and/or H2 is inhibited by less than about 80% as determined by a suitable assay known in the art such as the assays described herein.
In one variation, biding to serotonin receptor 5-HT2A is inhibited by at least about 80% as determined in a suitable assay know in the art such as the assay described herein.

[4] = system: synaptosomes of cortex of rat brain; assay: Glutamate-induced 45Ca2+ uptake into synaptosomes; type: biochemical, Wistar rats; conditions: for % Ca of control (control-100%), glutamate-induced 45Ca2+ uptake into synaptosomes: rat cortex synaptosomes
Protocol: Synaptosomes were obtained from cerebral cortex of newborn (9-10 days) Wistar rats using standard Hajos method. The brain was homogenized with 10 volumes of cooled 0.32 M sucrose at 900 rpm. The homogenate was centrifuged at 1500 g for 10 min. and the resulted supernatant was centrifuged at 10000 g for 20 min. The radioactive label was accumulated by suspension of the synaptosomal P2-fraction in the incubation buffer A having the following composition: 132 mM NaCl, 5 mM KCl, 5 mM HEPES, 10 mM glucose, pH 7.4 (protein concentration of approximately 1.5-2 mg/ml). The mixture was further incubated for 5 min with 200 μM glutamate at 37° C. and then ^45Ca^2+ uptake was stopped by filtration through GF/B filters (Whatman, England) followed by three washes with cold buffer B (145 mM KCl, 10 mM Tris, 5.4 mM Trilon B, pH 7.4). The radioactivity probes were analyzed by fluid scintillation beta-analyzer (TriCarb, Perkin Elmer). All tests were performed in three parallel trials in 2-3 independent experiments. The amount of ^45Ca^2+ uptake was estimated by calculating the difference of radioactive label during the stimulation with glutamate and without the stimulation with agonist.
Specific ^45Ca^2+ uptake was estimated using the following equation: K(43/21)=[(Ca4−Ca3)/(Ca2−Ca1)]100%, where
Ca1—^45Ca^2+ uptake for the Control (without glutamate and the compound tested),
[…] glutamate-induced ^45Ca^2+ uptake (glutamate only),
Ca3—^45Ca^2+ uptake in the presence of the compound tested (without glutamate),
Ca4—^45Ca^2+ uptake in the presence of glutamate and the testing compound.
Statistical analysis of the results was performed using Student's t-test.

mice = assay: recognition test of new location of a known object (spatial memory); type: in vivo

T1 sequence (P35367 whole entry): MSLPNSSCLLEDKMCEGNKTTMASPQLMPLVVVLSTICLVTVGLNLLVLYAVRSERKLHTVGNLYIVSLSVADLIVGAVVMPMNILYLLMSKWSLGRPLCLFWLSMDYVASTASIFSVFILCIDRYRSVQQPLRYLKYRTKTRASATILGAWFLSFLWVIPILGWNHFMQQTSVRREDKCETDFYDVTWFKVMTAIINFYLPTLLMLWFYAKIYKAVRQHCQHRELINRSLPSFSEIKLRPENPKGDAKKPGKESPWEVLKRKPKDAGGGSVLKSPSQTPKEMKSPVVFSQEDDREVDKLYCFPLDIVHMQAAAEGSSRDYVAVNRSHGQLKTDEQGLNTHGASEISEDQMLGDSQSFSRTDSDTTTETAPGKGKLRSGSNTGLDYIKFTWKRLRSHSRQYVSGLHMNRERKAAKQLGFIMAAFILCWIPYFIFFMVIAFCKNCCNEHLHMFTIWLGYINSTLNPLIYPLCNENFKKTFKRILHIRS
T2 sequence (P25021 whole entry): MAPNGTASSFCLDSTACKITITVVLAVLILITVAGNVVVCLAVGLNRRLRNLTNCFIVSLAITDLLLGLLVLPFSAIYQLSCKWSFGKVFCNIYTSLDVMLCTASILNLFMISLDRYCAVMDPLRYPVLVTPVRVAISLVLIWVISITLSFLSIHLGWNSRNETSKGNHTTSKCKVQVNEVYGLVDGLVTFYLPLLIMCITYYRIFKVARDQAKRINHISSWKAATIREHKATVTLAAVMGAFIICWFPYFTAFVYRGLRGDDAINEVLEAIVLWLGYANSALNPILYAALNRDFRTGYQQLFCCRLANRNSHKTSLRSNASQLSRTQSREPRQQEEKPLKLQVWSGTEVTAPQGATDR

**Q.** For CN1CCc2c(c3cc(Cl)ccc3n2CCc2noc(-c3ccccc3)n2)C1 [Compound G6-d, 8-Chloro-2-methyl-5-[2-(5-phenyl-1,2,4-oxadiazol-3-yl)ethyl]-2,3,4,5-tetrahydro-1H-pyrido-[4,3-b]indole], which melting point is on record?
**A.** Its melting point is 122 to 123 °C.

**Q.** For Cc1ccc2c(c1)c1c(n2CCc2nc(-c3ccccc3)cs2)CCN(C)C1 [Compound G8-c, 2,8-Dimethyl-5-[2-(4-phenylthiazol-2-yl)ethyl]-2,3,4,5-tetrahydro-1H-pyrido[4,3-b]indole], which melting point is on record?
**A.** The melting point was 148.5 to 149 °C.

**Q.** Which melting point does the source give for COc1ccc2c(c1)c1c(n2CCc2n[nH]c(=S)n2C)CCN(C)C1 [Compound G11-d, 5-[2-(8-Methoxy-2-methyl-2,3,4,5-tetrahydro-1H-pyrido[4,3-b]indol-5-yl)ethyl]-4-methyl-2,4-dihydro-1,2,4-triazole-3-thione] here?
**A.** The melting point was 219 to 222 °C.

**Q.** With COc1ccc2c(c1)c1c(n2CCc2noc(-c3ccccc3)n2)CCN(C)C1 [Compound G6-b, 8-Methoxy-2-methyl-5-[2-(5-phenyl-1,2,4-oxadiazol-3-yl)ethyl]-2,3,4,5-tetrahydro-1H-pyrido[4,3-b]indole] as the molecule, how does the melting point read?
**A.** The melting point was 77.5 to 79 °C.

**Q.** With CN1CCc2c(c3cc(F)ccc3n2CCc2n[nH]c(=S)n2C)C1 [Compound G11-c, 5-[2-(8-Fluoro-2-methyl-2,3,4,5-tetrahydro-1H-pyrido[4,3-b]indol-5-yl)ethyl]-4-methyl-2,4-dihydro-1,2,4-triazole-3-thione] as the molecule, how does the melting point read?
**A.** The melting point was 215 to 218 °C.

**Q.** For CN1CCc2c(c3cc(Cl)ccc3n2CCc2n[nH]c(=S)n2C)C1 [Compound G11-b, 5-[2-(8-Chloro-2-methyl-2,3,4,5-tetrahydro-1H-pyrido[4,3-b]indol-5-yl)ethyl]-4-methyl-2,4-dihydro-1,2,4-triazole-3-thione], which melting point is on record?
**A.** Its melting point is 216 to 219 °C.

**Q.** For Cc1ccc2c(c1)c1c(n2CCc2noc(-c3ccccc3)n2)CCN(C)C1 [Compound G6-c, 2,8-Dimethyl-5-[2-(5-phenyl-1,2,4-oxadiazol-3-yl)ethyl]-2,3,4,5-tetrahydro-1H-pyrido[4,3-b]-indole], which melting point is on record?
**A.** The melting point was 120 to 120.5 °C.

**Q.** For CCN1CCc2c(c3cc(C)ccc3n2CC(O)c2ccc(C)cc2)C1 (racemic) [Compound 29, racemic-2-(2-ethyl-1,2,3,4-tetrahydro-8-methylpyrido[4,3-b]indol-5-yl)-1-p-tolylethanol], which inhibition at 0.03 µM ([1]; 0.03 μM compound) is on record?
**A.** The inhibition at 0.03 µM was 37%.

**Q.** What about the inhibition at 0.1 µM ([1]; 0.1 μM compound) of the same molecule?
**A.** Its inhibition at 0.1 µM is 57%.

**Q.** What about the inhibition at 0.3 µM [2] of the same molecule?
**A.** The inhibition at 0.3 µM was 27%.

**Q.** What about the “compound type (classification by receptor binding profile and neurite outgrowth)” value [3] of the same molecule?
**A.** The value was “Type one”.

**Q.** For COc1ccc2c(c1)c1c(n2CCc2nc(-c3ccccc3)cs2)CCN(C)C1 [Compound G8-b, 8-Methoxy-2-methyl-5-[2-(4-phenylthiazol-2-yl)ethyl]-2,3,4,5-tetrahydro-1H-pyrido[4,3-b]indole], which melting point is on record?
**A.** The melting point was 135 to 136.5 °C.

**Q.** With CN1CCc2c(c3ccccc3n2CCc2noc(-c3ccccc3)n2)C1 [Compound G6-a, 2-Methyl-5-[2-(5-phenyl-1,2,4-oxadiazol-3-yl)ethyl]-2,3,4,5-tetrahydro-1H-pyrido[4,3-b]indole] as the molecule, how does the melting point read?
**A.** Its melting point is 111 to 112 °C.

**Q.** For CN1CCc2c(c3ccccc3n2CCc2nc(-c3ccccc3)cs2)C1 [Compound C1-1], which “concentration at which glutamate-induced 45Ca2+ uptake into synaptosomes was increased” value [4] is on record?
**A.** Its value is 50 to 100 µM.

**Q.** And the “inhibition of glutamate-induced 45Ca2+ uptake into synaptosomes” value ([4]; 0.1-0.5 μM)?
**A.** Its value is about 13%.

**Q.** What about the “glutamate-induced 45Ca2+ uptake into synaptosomes of rat cortex, % Ca of control (control-100%)” value ([4]; C 50 μM) of the same molecule?
**A.** Its value is 126.9%.

**Q.** What about the “% Ca of control (control-100%), glutamate-induced 45Ca2+ uptake into synaptosomes” value ([4]; compound 0.1 μM) of the same molecule?
**A.** The value was 85.5 ± 5.8%.

**Q.** What about the “% Ca of control (control-100%), glutamate-induced 45Ca2+ uptake into synaptosomes” value ([4]; compound 0.5 μM) of the same molecule?
**A.** Its value is 86.9 ± 4.2%.

**Q.** What about the “% Ca of control (control-100%), glutamate-induced 45Ca2+ uptake into synaptosomes” value ([4]; compound 1 μM) of the same molecule?
**A.** The value was 100.3 ± 6.5%.

**Q.** And the “% Ca of control (control-100%), glutamate-induced 45Ca2+ uptake into synaptosomes” value ([4]; compound 5 μM)?
**A.** Its value is 98.8 ± 3.2%.

**Q.** And the “% Ca of control (control-100%), glutamate-induced 45Ca2+ uptake into synaptosomes” value ([4]; compound 10 μM)?
**A.** Its value is 91 ± 11.9%.

**Q.** And the “% Ca of control (control-100%), glutamate-induced 45Ca2+ uptake into synaptosomes” value ([4]; compound 50 μM)?
**A.** The value was 126.9 ± 4.5%.

**Q.** What about the “% Ca of control (control-100%), glutamate-induced 45Ca2+ uptake into synaptosomes” value ([4]; compound 100 μM) of the same molecule?
**A.** The value was 111.9 ± 11.31%.

**Q.** What about the “Influence on memory in the test recognition new localization of known object” value (“Influence on memory” for short) (mice; Dose of Compound 0.05 mg/kg) of the same molecule?
**A.** The value was “+”.

**Q.** And the “Influence on memory” value (mice; Dose of Compound 0.1 mg/kg)?
**A.** The value was “+”.

**Q.** What about the “Influence on memory” value (mice; Dose of Compound 0.5 mg/kg) of the same molecule?
**A.** Its value is “−”.

**Q.** What about the “Influence on memory” value (mice; Dose of Compound 1.0 mg/kg) of the same molecule?
**A.** Its value is “+”.

**Q.** And the “activity on memory compared with dimebon (in words)” value (mice; comparison of effective doses)?
**A.** The value was “approximately two times higher”.

**Q.** And the “time exploring the object in a new location, % of the total time” value (mice; mice, dose 0.05 mg/kg)?
**A.** Its value is 61.8±8.4%.

**Q.** And the “time exploring the object in the known position, % of the total time” value (mice; mice, dose 0.05 mg/kg)?
**A.** The value was 38.2±8.4%.

**Q.** And the “time exploring the object in a new location, % of the total time” value (mice; mice, dose 0.1 mg/kg)?
**A.** Its value is 56.0±6.9%.

**Q.** And the “time exploring the object in the known position, % of the total time” value (mice; mice, dose 0.1 mg/kg)?
**A.** Its value is 42.7±6.9%.

**Q.** And the “effect of the dose on exploration time / memory (in words)” value (mice; mice, dose 0.5 mg/kg)?
**A.** The value was “disappearance of the stimulating effect on memory”.

**Q.** What about the “time exploring the object in a new location, % of the total time” value (mice; mice, dose 1 mg/kg) of the same molecule?
**A.** The value was 61.5±8.9%.

**Q.** And the “time exploring the object in the known position, % of the total time” value (mice; mice, dose 1 mg/kg)?
**A.** The value was 37.8±8.9%.

**Q.** What about the “overall effect on memory (in words)” value (mice; mice, doses 0.05-1 mg/kg) of the same molecule?
**A.** The value was “stimulating effect on memory”.

**Q.** With CN1CCc2c(c3cc(F)ccc3n2CCc2noc(-c3ccccc3)n2)C1 [Compound G6-f, 8-Fluoro-2-methyl-5-[2-(5-phenyl-1,2,4-oxadiazol-3-yl)ethyl]-2,3,4,5-tetrahydro-1H-pyrido-[4,3-b]indole] as the molecule, how does the melting point read?
**A.** The melting point was 121.5 to 122.5 °C.

**Q.** Which melting point does the source give for CN1CCc2c(c3cc(F)ccc3n2CCc2nc(-c3ccccc3)cs2)C1 [Compound G8-f, 8-Fluoro-2-methyl-5-[2-(4-phenylthiazol-2-yl)ethyl]-2,3,4,5-tetrahydro-1H-pyrido[4,3-b]indole] here?
**A.** The melting point was 136.5 to 137 °C.
